Results as given in patent US20250194593A1, “PESTICIDAL COMPOSITIONS COMPRISING PENTANAL AND USES THEREOF” (MIGAL GALILEE RESEARCH INSTITUTE LTD., priority 2022, published 2025).

Key:
[1] = pentanal release rate into the ambient air from compositions; assay type: physicochemical; conditions: release of 50% of the initial pentanal amount into the ambient air
Description: The inventors further calculated pentanal release rate into the ambient air from various compositions of the invention and compared the release rate to neat pentanal (liquid), as a negative control. Table 1 presents the time period required for release of 50% of the initial pentanal amount.

Alternaria alternata = assay: Petri dish with PDA inoculated with fungi spores exposed to pentanal vapors; assay type: cell-based; conditions: pentanal vapors about 18 ppm; vs untreated plates
Description: (§1) FIGS. 1A-1C are images representing inhibition of various plant pathogens Alternaria alternata (1A), Botrytis cinerea (1B), and Penicillium expansum (1C) by pentanal vapors at a concentration of 18 ppm. The inventors tested anti-fungal efficiency of pentanal vapors by exposing various fruits pathogens (e.g., Alternaria, Botrytis, and Penicillium species) to pentanal vapors at a concentration of about 18 ppm. Fruit (in vivo) or Petri dish with PDA (in vitro) inoculated with fungi spores (10^3-10^6 spores/ml) were exposed to pentanal vapors at concentrations of 10-100 ppm for 24 hr. after which the samples were aired and incubated until the pathogens developed in the untreated samples which served as control. The results of this experiment are represented in FIG. 1.

Botrytis cinerea [2] = assay: as above; assay type: cell-based; conditions: pentanal vapors about 18 ppm; vs untreated plates
Description: as §1

Penicillium expansum [3] = assay: as above; assay type: cell-based; conditions: pentanal vapors about 18 ppm; vs untreated plates
Description: as §1

[4] = tested on: pathogen related decay (spoilage) of fruits (pears, strawberries and mandarins); assay: decay of fruits exposed to pentanal and stored; assay type: in vivo; conditions: 10 to 30 ppm pentanal; stored in a cold room and/or at 20° C.
Procedure: Furthermore, various fruits (e.g. pears, strawberries and mandarins) have been exposed to between 10 and 30 ppm of pentanal (e.g. in a form of vapors, or by contacting thereof with an appropriate amount of any one of the composition of the invention). Upon exposure, the treated fruits have been stored for different time periods (in a cold room and/or at 20° C.). Subsequently, the decay of treated fruits has been examined and compared to untreated fruits.

Penicillium expansum [5] = assay: electron microscopy of mycelium and spores treated with pentanal; assay type: cell-based; conditions: pentanal treated vs untreated
Procedure: FIGS. 2A-2C are micrographs presenting the effect of pentanal vapors (lower panel) on the mycelium (2A), conidia (2B), and spores (2C) of Penicillium expansum, as compared to untreated counterparts (upper panel). White arrows represent damage of Penicillium expansum upon exposure to pentanal vapors. Mycelium and spores of Penicillium expansum treated and untreated with pentanal were analyzed using electronic microscope. Untreated mycelium and the spores of Penicillium expansum developed normally (FIG. 2, upper panel) while the Pentanal treated samples were impaired, the round structure of the mycelium was altered and along the mycelium damaged sites were observed (FIG. 2A). The conjugation sites of the spores in conidiophore were also damaged (FIG. 2B), and ruptures were visible on the spores' surface (FIG. 2C).

Botrytis cinerea [6] = assay: rot development on inoculated pears after cold storage; assay type: in vivo; conditions: pentanal vapors 18 ppm; 2 months of cold storage (0° C.)
Procedure: (§2) FIGS. 3A-3B are bar graphs representing the development of rots (in mm) on pears that were inoculated with Penicillium expansum (3A) and Botrytis cinera (3B) spores. Pears were inoculated with different concentrations of Penicillium expansum spores: 10^3 spores (A); 10^4 spores (B); 10^5 spores (C). The diameter of rots (in mm) was assessed after 2 months of cold storage (at 0° C.). The graphs represent untreated pears versus pears treated by pentanal vapors (18 ppm).
(§3) The decay was measured after 2 months of cold storage (0° C.).

Penicillium expansum [7] = assay: as above; assay type: in vivo; conditions: pentanal vapors 18 ppm; 10^3-10^5 spores; 2 months of cold storage (0° C.)
Procedure: as §2, §3

[8] = tested on: Penicillium expansum and/or Botrytis cinerea; assay: storage shelf-life of inoculated fruit and vegetables exposed to pentanal vapors; assay type: in vivo; conditions: strawberries
Description: Furthermore, the inventors tested the storage shelf-life of various inoculated fruit and vegetables species, such as: apples, pears, strawberries, lichi, cucumbers, citrus fruits, grapes under similar storage conditions upon exposure thereof to pentanal vapors. The fruits have been inoculated with Penicillium expansum and/or Botrytis cinerea spores and exposed to pentanal vapors at a concentration ranging between 30 and 100 ppm during the cold storage. […] The exact preservative effective amount of pentanal vapors varies dependent on the specific fruit specie, for example strawberries require higher concentration of pentanal, about 80-100 ppm.

[9] = tested on: Penicillium expansum spores; assay: effect of different volatiles on viability of spores (CFU); assay type: cell-based; conditions: 0.9, 1.8 or 18 μL/L
Procedure: FIGS. 4A-4B are bar graphs representing antifungal activity of different VOCs. FIG. 4A represents the effect of Butyl acetate (B) Hexyl acetate (H), Isoamyl acetate (I), Trans-2-Hexanal (T), and Pentanal (P) and Control (C) at the concentrations of 1.8 μL/L or 18 μL/L on Penicillium expansum spores (CFU). Different letters represent significant differences between treatments (p<0.05). A-C-1.8 μL/L, a-c-18 μL/L 1.8. FIG. 4B represents the effect of different volatiles Hexyl acetate (H), Trans-2-Hexanal (T), Pentanal (P), Hexanal (He) and Control (C) at the concentrations of 0.9 μL/L, 1.8 μL/L or 18 μL/L on Penicillium expansum spores (CFU). Different letters represent significant differences between treatments (p<0.05). A-C-1.8 μL/L, a-c-18 μL/L 1.8.
The inventors additionally examined the effect of different volatiles on the viability of Penicillium expansum spores. The volatiles tested were: Butyl acetate, Hexyl acetate, Isoamyl acetate, […] and they were compared to Pentanal at two different concentrations (1.8 μL/L or 18 μL/L). Furthermore, the inventors examined lower concentration (0.9 μL/L) for the following VOCs hexanal, trans-hexenal, and hexyl acetate on Penicillium expansum spores (CFU).

[10] = tested on: Penicillium expansum spores; assay: spores incubated on PDA plates, then exposed to pentanal vapors for 24 hr; assay type: cell-based
Procedure: The effect of incubation period (hours) of Penicillium expansum spores on PDA plates followed by exposure to pentanal vapors (1.8 ppm, or 18 ppm) for 24 hr was examined.

Structure (SMILES): CCCCC=O [Pentanal]
- Time (min) until 50% release [1]: 5 min
- fungal growth in petri dish (Alternaria alternata): completely prevented fungal growth
- fungal growth in petri dish (Botrytis cinerea [2]): completely prevented fungal growth
- fungal growth in petri dish (Penicillium expansum [3]): completely prevented fungal growth
- decay of treated fruits compared to untreated fruits [4]: prevention pathogen related decay (spoilage)
- damage to mycelium, conidiophore and spores (electron microscope) (Penicillium expansum [5]): physical damage
- decay development in inoculated pears (Botrytis cinerea [6]): significantly delayed decay development
- decay development in inoculated pears (Penicillium expansum [7]): significantly delayed decay development
- shelf-life of inoculated fruits and vegetables vs non-treated controls ([8]; pentanal vapors 30 to 100 ppm during cold storage, apples, pears, lichi, cucumbers, citrus fruits, grapes): significantly prolong the shelf-life
- preservative effective amount of pentanal vapors [8]: 80-100 ppm
- anti-fungal activity (CFU) compared to other VOCs [9]: significantly enhanced anti-fungal activity
- fungal colonies 6 days after exposure ([10]; pentanal vapors 1.8 ppm for 24 hr): no fungal colonies were detected
- fungal colonies 6 days after exposure ([10]; pentanal vapors 18 ppm for 24 hr): no fungal colonies were detected
